Test results: article PMC5218480 (PLoS ONE, 2017)

System: MV-4-11 cells
Assay: Gene expression microarray analysis (Affymetrix PrimeView) and GSEA
Assay type: cell-based, human
Design: RFU PODN (11730768_x_at) / Fold change /veh PODN (11730768_x_at) / RFU LINC00158 (11744669_a_at) / Fold change /veh LINC00158 (11744669_a_at) / RFU DUSP10 (11751237_a_at) / Fold change /veh DUSP10 (11751237_a_at) / RFU ID3 (11757404_x_at) / Fold change /veh ID3 (11757404_x_at) / RFU PLEKHG5 (11737974_s_at) / Fold change /veh PLEKHG5 (11737974_s_at) / RFU LRRC4B (11730491_at) / Fold change /veh LRRC4B (11730491_at) / RFU GIMAP4 (11747438_a_at) / Fold change /veh GIMAP4 (11747438_a_at) / RFU KRT8 (11758183_x_at) / Fold change /veh KRT8 (11758183_x_at) / RFU CNN1 (11734310_a_at) / Fold change /veh CNN1 (11734310_a_at) / RFU VPS37D (11726825_at) / Fold change /veh VPS37D (11726825_at) / RFU C10orf10 (11716522_x_at) / Fold change /veh C10orf10 (11716522_x_at) / RFU KIR2DL2 /// KIR2DL4 /// KIR2DL5A /// KIR2DL5B /// KIR2DS1 /// KIR2DS2 /// KIR2DS3 /// KIR2DS4 /// KIR3DL3 /// KIR3DL3 /// KIR3DS1 (11738374_at) / Fold change /veh KIR2DL2 /// KIR2DL4 /// KIR2DL5A /// KIR2DL5B /// KIR2DS1 /// KIR2DS2 /// KIR2DS3 /// KIR2DS4 /// KIR3DL3 /// KIR3DL3 /// KIR3DS1 (11738374_at) / RFU C1QL1 (11718748_at) / Fold change /veh C1QL1 (11718748_at) / RFU TMPRSS4 (11747572_a_at) / Fold change /veh TMPRSS4 (11747572_a_at) / RFU HAMP (11756126_x_at) / Fold change /veh HAMP (11756126_x_at) / RFU RNFT2 (11725882_a_at) / Fold change /veh RNFT2 (11725882_a_at) / RFU NR4A2 (11747474_a_at) / Fold change /veh NR4A2 (11747474_a_at) / RFU ABCC12 (11746883_a_at) / Fold change /veh ABCC12 (11746883_a_at) / RFU TMEM136 (11760407_x_at) / Fold change /veh TMEM136 (11760407_x_at) / RFU CLDN22 /// WWC2 (11732394_at) / Fold change /veh CLDN22 /// WWC2 (11732394_at) / RFU HLA-DPB1 (11760878_x_at) / Fold change /veh HLA-DPB1 (11760878_x_at) / RFU SPINT1 (11716480_a_at) / Fold change /veh SPINT1 (11716480_a_at) / RFU GAP43 (11754022_s_at) / Fold change /veh GAP43 (11754022_s_at) / RFU A4GNT (11735810_at) / Fold change /veh A4GNT (11735810_at) / RFU PRB3 (11715151_x_at) / Fold change /veh PRB3 (11715151_x_at) / RFU TUBB4B (11761932_at) / Fold change /veh TUBB4B (11761932_at) / RFU CAPN14 (11732068_a_at) / Fold change /veh CAPN14 (11732068_a_at) / RFU TMCC2 (11721928_a_at) / Fold change /veh TMCC2 (11721928_a_at) / RFU IRGQ (11745062_a_at) / Fold change /veh IRGQ (11745062_a_at) / RFU FAM174B (11720279_a_at) / Fold change /veh FAM174B (11720279_a_at) / RFU TMPRSS4 (11748680_a_at) / Fold change /veh TMPRSS4 (11748680_a_at) / RFU FAM212B (11763350_a_at) / Fold change /veh FAM212B (11763350_a_at) / RFU PLEKHG5 (11743358_a_at) / Fold change /veh PLEKHG5 (11743358_a_at) / RFU ZSCAN30 (11745921_a_at) / Fold change /veh ZSCAN30 (11745921_a_at) / RFU CMKLR1 (11741424_a_at) / Fold change /veh CMKLR1 (11741424_a_at) / RFU LOC101060620 /// MAPK8IP1 (11723275_at) / Fold change /veh LOC101060620 /// MAPK8IP1 (11723275_at) / RFU SPTSSB (11747773_x_at) / Fold change /veh SPTSSB (11747773_x_at) / RFU PRSS12 (11739890_at) / Fold change /veh PRSS12 (11739890_at) / RFU BIN1 (11741810_x_at) / Fold change /veh BIN1 (11741810_x_at) / RFU WNT11 (11732464_a_at) / Fold change /veh WNT11 (11732464_a_at) / RFU C10orf10 (11716521_a_at) / Fold change /veh C10orf10 (11716521_a_at) / RFU C5orf56 (11738089_at) / Fold change /veh C5orf56 (11738089_at) / RFU CYB561 (11721691_x_at) / Fold change /veh CYB561 (11721691_x_at) / RFU ANKRD19P (11752326_a_at) / Fold change /veh ANKRD19P (11752326_a_at) / RFU OR2T12 /// OR2T33 /// OR2T8 (11738714_s_at) / Fold change /veh OR2T12 /// OR2T33 /// OR2T8 (11738714_s_at) / RFU VCAN (11748164_a_at) / Fold change /veh VCAN (11748164_a_at) / RFU JSRP1 (11732532_at) / Fold change /veh JSRP1 (11732532_at) / RFU KRTAP10-11 (11738290_x_at) / Fold change /veh KRTAP10-11 (11738290_x_at) / RFU MYO3A (11730013_a_at) / Fold change /veh MYO3A (11730013_a_at) / RFU EBF3 (11725865_a_at) / Fold change /veh EBF3 (11725865_a_at) / RFU CAMK2N1 (11719241_x_at) / Fold change /veh CAMK2N1 (11719241_x_at) / RFU C5orf56 (11738088_a_at) / Fold change /veh C5orf56 (11738088_a_at) / RFU OLFML3 (11715873_a_at) / Fold change /veh OLFML3 (11715873_a_at) / RFU LOC100653217 /// NTM (11731650_a_at) / Fold change /veh LOC100653217 /// NTM (11731650_a_at) / RFU MAPK11 (11762145_a_at) / Fold change /veh MAPK11 (11762145_a_at) / RFU FIZ1 (11724087_x_at) / Fold change /veh FIZ1 (11724087_x_at) / RFU OASL (11726364_x_at) / Fold change /veh OASL (11726364_x_at) / RFU SOX15 (11748057_x_at) / Fold change /veh SOX15 (11748057_x_at) / RFU CD79A (11719716_a_at) / Fold change /veh CD79A (11719716_a_at) / RFU HIST1H1D (11736915_at) / Fold change /veh HIST1H1D (11736915_at) / RFU CASKIN2 (11723855_a_at) / Fold change /veh CASKIN2 (11723855_a_at) / RFU LOC730098 (11760151_x_at) / Fold change /veh LOC730098 (11760151_x_at) / RFU OR4N2 (11742367_at) / Fold change /veh OR4N2 (11742367_at) / RFU PRRT2 (11749266_a_at) / Fold change /veh PRRT2 (11749266_a_at) / RFU SNX32 (11753110_a_at) / Fold change /veh SNX32 (11753110_a_at) / RFU CDHR5 (11726645_a_at) / Fold change /veh CDHR5 (11726645_a_at) / RFU RCAN1 (11760418_a_at) / Fold change /veh RCAN1 (11760418_a_at) / RFU FAM167A (11723789_a_at) / Fold change /veh FAM167A (11723789_a_at) / RFU FAM26E (11764081_at) / Fold change /veh FAM26E (11764081_at) / RFU ISYNA1 (11749810_s_at) / Fold change /veh ISYNA1 (11749810_s_at) / RFU ACY1 (11761880_at) / Fold change /veh ACY1 (11761880_at) / RFU 11764098_at / Fold change /veh 11764098_at / RFU SAMD14 (11745864_x_at) / Fold change /veh SAMD14 (11745864_x_at) / RFU NPB (11741838_a_at) / Fold change /veh NPB (11741838_a_at) / RFU TMPRSS6 (11731388_a_at) / Fold change /veh TMPRSS6 (11731388_a_at) / RFU KRTAP10-2 (11738614_at) / Fold change /veh KRTAP10-2 (11738614_at) / RFU ARHGAP8 /// PRR5-ARHGAP8 (11727945_x_at) / Fold change /veh ARHGAP8 /// PRR5-ARHGAP8 (11727945_x_at) / RFU KRTAP5-7 /// NADSYN1 (11734609_at) / Fold change /veh KRTAP5-7 /// NADSYN1 (11734609_at) / RFU RASL12 (11751679_a_at) / Fold change /veh RASL12 (11751679_a_at) / RFU CDKN2B (11736163_a_at) / Fold change /veh CDKN2B (11736163_a_at) / RFU PRF1 (11729649_at) / Fold change /veh PRF1 (11729649_at) / RFU, ZNF638 /// ZNF638-IT1 / Fold change vs veh, ZNF638 /// ZNF638-IT1 / RFU, PANK3 / Fold change vs veh, PANK3 / RFU, SH3YL1 / Fold change vs veh, SH3YL1 / RFU, ZEB2 / Fold change vs veh, ZEB2 / RFU, NRIP1 / Fold change vs veh, NRIP1 / RFU, PTTG1IP / Fold change vs veh, PTTG1IP / RFU, CAPN2 / Fold change vs veh, CAPN2 / RFU, MED14 / Fold change vs veh, MED14 / RFU, SNORA58 / Fold change vs veh, SNORA58 / RFU, C1orf63 / Fold change vs veh, C1orf63 / RFU, LRRFIP1 / Fold change vs veh, LRRFIP1 / RFU, NDUFAF7 / Fold change vs veh, NDUFAF7 / RFU, SLC12A2 / Fold change vs veh, SLC12A2 / RFU, IBTK / Fold change vs veh, IBTK / RFU, ESF1 / Fold change vs veh, ESF1 / Fold change vs veh, TMEM50B / RFU, TAOK1 / Fold change vs veh, TAOK1 / RFU, ACBD3 / Fold change vs veh, ACBD3 / RFU, TMA16 / Fold change vs veh, TMA16 / RFU, RWDD3 / Fold change vs veh, RWDD3 / RFU, BCAT1 / Fold change vs veh, BCAT1 / RFU, EDEM3 / Fold change vs veh, EDEM3 / RFU, TMEM33 / Fold change vs veh, TMEM33 / RFU, WDR75 / Fold change vs veh, WDR75 / RFU, AHCTF1 / Fold change vs veh, AHCTF1 / RFU, TFRC / Fold change vs veh, TFRC / RFU, ZDHHC17 / Fold change vs veh, ZDHHC17 / RFU, NOM1 / Fold change vs veh, NOM1 / RFU, ARL8B / Fold change vs veh, ARL8B / RFU, ZBTB11 / Fold change vs veh, ZBTB11 / RFU, TAMM41 / Fold change vs veh, TAMM41 / RFU, KIAA1704 /// LOC100996395 / Fold change vs veh, KIAA1704 /// LOC100996395 / RFU, ING1 / Fold change vs veh, ING1 / RFU, TRMT61B / Fold change vs veh, TRMT61B / RFU, FUBP3 / Fold change vs veh, FUBP3 / RFU, TP53 / Fold change vs veh, TP53 / RFU, TNKS2 / Fold change vs veh, TNKS2 / RFU, ZFP14 / Fold change vs veh, ZFP14 / RFU, ACTR2 / Fold change vs veh, ACTR2 / RFU, PPP3R1 / Fold change vs veh, PPP3R1 / RFU, PIK3R1 / Fold change vs veh, PIK3R1 / RFU, HNRNPA1 / Fold change vs veh, HNRNPA1 / RFU, RNF170 / Fold change vs veh, RNF170 / RFU, ZNF28 / Fold change vs veh, ZNF28 / RFU, RNGTT / Fold change vs veh, RNGTT / RFU, OGT / Fold change vs veh, OGT / RFU, BRD1 / Fold change vs veh, BRD1 / RFU, MARS / Fold change vs veh, MARS / RFU, ZNF655 / Fold change vs veh, ZNF655 / RFU, FAHD1 / Fold change vs veh, FAHD1 / RFU, BDP1 / Fold change vs veh, BDP1 / RFU, LRRCC1 / Fold change vs veh, LRRCC1 / RFU, ARID1A / Fold change vs veh, ARID1A / RFU, ZNF146 / Fold change vs veh, ZNF146 / RFU, ZNF330 / Fold change vs veh, ZNF330 / RFU, GPN3 / Fold change vs veh, GPN3 / RFU, C9orf123 / Fold change vs veh, C9orf123 / RFU, N4BP2L2 / Fold change vs veh, N4BP2L2 / RFU, ARFIP1 / Fold change vs veh, ARFIP1 / RFU, FAM179B / Fold change vs veh, FAM179B / RFU, BCL10 / Fold change vs veh, BCL10 / RFU, UHRF1BP1L / Fold change vs veh, UHRF1BP1L / RFU, BET1 / Fold change vs veh, BET1 / RFU, CNOT2 / Fold change vs veh, CNOT2 / RFU, ZNF268 / Fold change vs veh, ZNF268 / Fold change vs veh, ZNF507 / RFU, DGCR2 / Fold change vs veh, DGCR2 / RFU, WDSUB1 / Fold change vs veh, WDSUB1 / Fold change vs veh, HSP90B1 /// MIR3652 / RFU, ADSS / Fold change vs veh, ADSS / RFU, GK / Fold change vs veh, GK / RFU, ZNF148 / Fold change vs veh, ZNF148 / RFU, TAF9 / Fold change vs veh, TAF9 / RFU, SLC1A5 / Fold change vs veh, SLC1A5 / RFU, SLMO2 / Fold change vs veh, SLMO2 / RFU, ABCC4 / Fold change vs veh, ABCC4 / RFU, LOC101060439 /// RAP1B / Fold change vs veh, LOC101060439 /// RAP1B / RFU, RFX7 / Fold change vs veh, RFX7 / RFU, GTPBP10 / Fold change vs veh, GTPBP10 / RFU, CNEP1R1 / Fold change vs veh, CNEP1R1 / RFU, BIVM-ERCC5 /// ERCC5 / Fold change vs veh, BIVM-ERCC5 /// ERCC5 / RFU, ILF3 / Fold change vs veh, ILF3 / RFU 11762660_at / Fold change /veh 11762660_at / RFU VCAN (11757783_s_at) / Fold change /veh VCAN (11757783_s_at) / RFU DDX43 (11728927_at) / Fold change /veh DDX43 (11728927_at) / RFU KRT8 (11758188_x_at) / Fold change /veh KRT8 (11758188_x_at) / RFU NKD1 (11759106_at) / Fold change /veh NKD1 (11759106_at) / RFU SRD5A1 (11742802_a_at) / Fold change /veh SRD5A1 (11742802_a_at) / RFU TPSAB1 /// TPSB2 (11721975_s_at) / Fold change /veh TPSAB1 /// TPSB2 (11721975_s_at) / RFU GSTM3 (11746129_a_at) / Fold change /veh GSTM3 (11746129_a_at) / RFU IL23R (11737362_x_at) / Fold change /veh IL23R (11737362_x_at) / RFU TMEM51 (11727254_a_at) / Fold change /veh TMEM51 (11727254_a_at) / RFU PIWIL2 (11732686_x_at) / Fold change /veh PIWIL2 (11732686_x_at) / RFU ORM1 (11744905_x_at) / Fold change /veh ORM1 (11744905_x_at) / RFU CCDC152 (11743942_at) / Fold change /veh CCDC152 (11743942_at) / RFU ECM1 (11717891_a_at) / Fold change /veh ECM1 (11717891_a_at) / RFU IL23R (11748794_a_at) / Fold change /veh IL23R (11748794_a_at) / RFU TNFAIP8L3 (11732012_x_at) / Fold change /veh TNFAIP8L3 (11732012_x_at) / RFU MBOAT4 (11741988_at) / Fold change /veh MBOAT4 (11741988_at) / RFU 11764193_at / Fold change /veh 11764193_at / RFU TMEM53 (11763286_at) / Fold change /veh TMEM53 (11763286_at) / RFU MAGEB2 (11727129_at) / Fold change /veh MAGEB2 (11727129_at) / RFU TMEM200A (11744735_a_at) / Fold change /veh TMEM200A (11744735_a_at) / RFU CCDC152 (11751479_a_at) / Fold change /veh CCDC152 (11751479_a_at) / RFU FAM211A (11726209_a_at) / Fold change /veh FAM211A (11726209_a_at) / RFU RGS16 (11746705_a_at) / Fold change /veh RGS16 (11746705_a_at) / RFU VCAN (11755009_s_at) / Fold change /veh VCAN (11755009_s_at) / RFU RHOB (11743442_s_at) / Fold change /veh RHOB (11743442_s_at) / RFU RGS16 (11720943_a_at) / Fold change /veh RGS16 (11720943_a_at) / RFU RGS16 (11720944_at) / Fold change /veh RGS16 (11720944_at) / RFU, VPS4B / Fold change vs veh, VPS4B / RFU, CREB1 / Fold change vs veh, CREB1 / RFU, DNAJC13 / Fold change vs veh, DNAJC13 / RFU, GNAQ / Fold change vs veh, GNAQ / RFU, CDK5R1 / Fold change vs veh, CDK5R1 / RFU, ZRANB3 / Fold change vs veh, ZRANB3 / RFU, CUL4A / Fold change vs veh, CUL4A / RFU, CCNY / Fold change vs veh, CCNY / RFU, UFL1 / Fold change vs veh, UFL1 / RFU, COG3 / Fold change vs veh, COG3 / RFU, DIAPH2 / Fold change vs veh, DIAPH2 / RFU, SKA2 / Fold change vs veh, SKA2 / RFU, AFF3 / Fold change vs veh, AFF3 / RFU, LMF1 / Fold change vs veh, LMF1 / RFU, IPO11 / Fold change vs veh, IPO11 / RFU, DFFB / Fold change vs veh, DFFB / RFU, FOXP1 / Fold change vs veh, FOXP1 / RFU, CARD8 / Fold change vs veh, CARD8 / RFU, STRN3 / Fold change vs veh, STRN3 / RFU, ADK / Fold change vs veh, ADK / RFU, RASSF2 / Fold change vs veh, RASSF2 / RFU, WIPF1 / Fold change vs veh, WIPF1 / RFU, LARP1B / Fold change vs veh, LARP1B / RFU, RASA1 / Fold change vs veh, RASA1 / RFU, RB1 / Fold change vs veh, RB1 / RFU, PPFIA1 / Fold change vs veh, PPFIA1 / RFU, MAT2A / Fold change vs veh, MAT2A / RFU, CCT5 / Fold change vs veh, CCT5 / RFU, WDR92 / Fold change vs veh, WDR92 / RFU, CUX1 / Fold change vs veh, CUX1 / RFU, TTC7A / Fold change vs veh, TTC7A / RFU, TMEM135 / Fold change vs veh, TMEM135 / RFU, DEPTOR / Fold change vs veh, DEPTOR / RFU, CPM / Fold change vs veh, CPM / RFU, DNAJB6 / Fold change vs veh, DNAJB6 / RFU, CACNA2D3 / Fold change vs veh, CACNA2D3 / RFU, DTX4 / Fold change vs veh, DTX4 / RFU, TFCP2 / Fold change vs veh, TFCP2 / RFU, GMCL1 /// GMCL1P1 / Fold change vs veh, GMCL1 /// GMCL1P1 / RFU, AEBP2 / Fold change vs veh, AEBP2 / RFU, SNHG1 /// SNORD22 /// SNORD25 /// SNORD26 /// SNORD27 /// SNORD28 /// SNORD29 /// SNORD31 / Fold change vs veh, SNHG1 /// SNORD22 /// SNORD25 /// SNORD26 /// SNORD27 /// SNORD28 /// SNORD29 /// SNORD31 / Fold change (Aza/veh), C12orf56 (ProbeSet 11735607_a_at) / Fold change (ACY-1035/veh), C12orf56 (ProbeSet 11735607_a_at) / Fold change (Aza/veh), FGFR1OP (ProbeSet 11751329_s_at) / Fold change (ACY-1035/veh), FGFR1OP (ProbeSet 11751329_s_at) / Fold change (Aza/veh), VPS36 (ProbeSet 11739960_a_at) / Fold change (ACY-1035/veh), VPS36 (ProbeSet 11739960_a_at) / RFU SYPL1 (11715823_x_at) / Fold change /veh SYPL1 (11715823_x_at) / RFU IGFBP7 (11715501_s_at) / Fold change /veh IGFBP7 (11715501_s_at) / RFU REEP3 (11722064_at) / Fold change /veh REEP3 (11722064_at) / RFU IGLL1 (11728026_x_at) / Fold change /veh IGLL1 (11728026_x_at): dose or concentration left out as unconfirmed
Conditions: ProbeSet 11718569_a_at; LIST D

Nc1ncn([C@@H]2O[C@H](CO)[C@@H](O)[C@H]2O)c(=O)n1 [azacitidine]
RFU, WIPF1: 81.62 RFU
